In patent publication US6800658B2, “Substituted diphenyl indanone, indane and indole compounds and analogues thereof useful for the treatment of prevention of diseases characterized by abnormal cell proliferation” (Children's Medical Center Corporation, priority 1997, dated 2004):

How the values were obtained:
[1] = test system: NIH 3T3 mouse fibroblast cells; test: Mitogenic Assay (mitogen-induced cell proliferation); details: for inhibition at 10 µM: NIH3T3, read-out: Mitogenic Assay Inhibition; for IC50: NIH3T3, read-out: Mitogenic Assay IC50
[2] = target: Gardos channel of erythrocytes (Homo sapiens, UniProt O15554); test: Gardos Channel Assay; details: for inhibition at 10 µM: read-out: Gardos Channel Assay Inhibition
Chain of Gardos channel of erythrocytes (O15554 whole entry): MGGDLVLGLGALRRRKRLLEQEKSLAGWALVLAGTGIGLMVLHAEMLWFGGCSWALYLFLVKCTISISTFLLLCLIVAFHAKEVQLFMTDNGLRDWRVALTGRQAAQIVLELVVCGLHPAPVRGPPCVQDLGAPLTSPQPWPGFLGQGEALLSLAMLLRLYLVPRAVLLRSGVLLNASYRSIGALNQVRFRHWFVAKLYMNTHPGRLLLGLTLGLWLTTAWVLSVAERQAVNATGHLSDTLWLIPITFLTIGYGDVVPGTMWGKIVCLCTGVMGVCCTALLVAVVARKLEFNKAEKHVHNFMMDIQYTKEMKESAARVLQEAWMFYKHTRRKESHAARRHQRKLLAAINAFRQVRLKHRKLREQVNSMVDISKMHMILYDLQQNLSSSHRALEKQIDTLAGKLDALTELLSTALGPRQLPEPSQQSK

[3] = test system: MM-RU human melanoma cells; details: SCID mice inoculated with MM-RU human melanoma cells, daily administration; cited from earlier work
SAD mouse red cells = details: oral administration; cited from earlier work
[4] = test system: patients with sickle cell disease; details: oral therapy; cited from earlier work
SK-MEL-28 = test: SRB antiproliferative assay, SK-MEL-28; type: cell-based; details: Homo sapiens, SK-MEL-28, 120 h; Melanoma; 5% FCS, 5 Day Incubation
Text: (§1) The cells were passaged using Trypsin (Gibco).

3T3 = test: SRB assay, normal 3T3 cells; type: cell-based; details: NIH3T3, 120 h; Normal mouse; 5% FCS, 5 Day Incubation
Text: as §1

SK-OV-3 = test: SRB antiproliferative assay, SK-OV-3; type: cell-based; details: Homo sapiens, SK-OV-3, 120 h; Ovary; 5% FCS, 5 Day Incubation
Text: as §1

A549 = test: SRB antiproliferative assay, A549; details: Homo sapiens, A549, 120 h, read-out: SRB IC50 A549
Description: (§2) The antiproliferative assays described herein were performed using standard aseptic procedures and universal precautions for the use of tissues. Cells were propagated using RPMI 1640 media (Gibco) containing 2% N 5% fetal calf serum (Biowhittaker) at 37° C., 5% CO2 and 95% humidity. The cells were passaged using Trypsin (Gibco).
(§3) Following incubation, the cellular protein was determined with the ulforhodamine B (SRB) assay (Skehan P et al., 1990, J. Natl. Cancer Inst. 82:1107-1112).

L929 = test: SRB assay, normal L929 cells; type: cell-based; details: L929, 120 h; Normal mouse; 5% FCS, 5 Day Incubation
Text: as §1

ACHN = test: SRB antiproliferative assay, ACHN; type: cell-based; details: Homo sapiens, 120 h, Renal, 5% FCS, 5 Day Incubation
Text: as §1

HT29 = test: SRB antiproliferative assay, HT29; details: Homo sapiens, HT-29, 120 h, read-out: SRB IC50 HT29
Description: as §2, §3

HCT-15 = test: SRB antiproliferative assay, HCT-15; type: cell-based; details: Homo sapiens, HCT-15, 120 h; Colon; 5% FCS, 5 Day Incubation
Text: as §1

HTB174 = test: SRB antiproliferative assay, HTB174; type: cell-based; details: 120 h; Lung; 5% FCS, 5 Day Incubation
Text: as §1

HUVEC = test: SRB assay, normal HUVEC cells; type: cell-based; details: 120 h, Normal human, 5% FCS, 5 Day Incubation
Text: as §1

DU-145 = test: SRB antiproliferative assay, DU-145; type: cell-based; details: Homo sapiens, DU-145, 120 h; Prostate; 5% FCS, 5 Day Incubation
Text: as §1

MDA-MB-231 = test: SRB antiproliferative assay, MDA-MB-231; type: cell-based; details: Homo sapiens, 120 h; Breast; 5% FCS, 5 Day Incubation; read-out: SRB IC50 MDA-MB-23
Text: as §1

GM = test: SRB assay, normal GM cells; type: cell-based; details: 120 h; Normal human; 5% FCS, 5 Day Incubation
Text: as §1

HeLa = test: SRB antiproliferative assay, HeLa; type: cell-based; details: Homo sapiens, 120 h, Cervical, 5% FCS, 5 Day Incubation
Text: as §1

MCF7 = test: SRB antiproliferative assay, MCF7; details: Homo sapiens, MCF7, 120 h, read-out: SRB IC50 MCF7
Description: as §2, §3

HEPG2 = test: SRB antiproliferative assay, HEPG2; type: cell-based; details: Homo sapiens, HepG2, 120 h; Hepatocel; 5% FCS, 5 Day Incubation
Text: as §1

CaSki = test: SRB antiproliferative assay, CaSki; type: cell-based; details: Homo sapiens, Ca-Ski, 120 h; Cervical; 5% FCS, 5 Day Incubation
Text: as §1

MMRU cells = test: SRB antiproliferative assay, MMRU; details: Homo sapiens, 120 h, read-out: SRB IC50 MMRU
Description: as §2, §3

Molecule `N#CC1OC12CC(c1ccccc1)(c1ccccc1)c1ccccc12` (stereo not drawn) [Compound 5, spiro[3,3-diphenyl-2,3-dihydro(1H)indene-1,3′-2′-cyanooxirane]] has an inhibition at 10 µM [1] of 29% and an inhibition at 10 µM [2] of 67.3%.
In the case of `Clc1ccccc1C(c1ccccc1)(c1ccccc1)n1ccnc1` [Clotrimazole], the “number of lung metastases observed” value [3] is listed as “significant reduction”, the cell density (SAD mouse red cells) is listed as “decreased” and the “mean cell hemoglobin concentration (MCHC)” value (SAD mouse red cells) is listed as “decreased”. For the same molecule, the “red cell Gardos channel” value (SAD mouse red cells) was “inhibition”, the “red cell K+ content” value (SAD mouse red cells) was “increased” and the Gardos channel [4] was “induces inhibition”. The erythrocyte dehydration [4] was “reduces”.
For `OC1=C(CCC2OCCO2)C(c2ccccc2)(c2ccccc2)c2ccccc21` [Compound 20, 2-(Ethyl-2′-(1,3-dioxolane))-1-hydroxy-3,3-diphenylindene], the inhibition at 10 µM [1] was 81%, the inhibition at 10 µM [2] was 0% and the melting point was 124 to 126 °C.
In the case of `C=CCOC1=C(CC=C)C(c2ccccc2)(c2ccccc2)c2ccccc21` [Compound 6], the IC50 [1] is reported as 3.4 µM, the inhibition at 10 µM [1] is reported as 90% and the inhibition at 10 µM [2] is reported as 35%.
For `Clc1ccccc1COC1CC(c2ccccc2)(c2ccccc2)c2ccccc21` (stereo not drawn) [Compound 18, 3,3-Diphenyl-1-indanyl α-(2-chlorotoluyl) ether], the inhibition at 10 µM [1] was 73%, the inhibition at 10 µM [2] was 0% and the melting point was 27 to 29 °C.
Work on `COC(=O)c1ccc(COC2CC(c3ccccc3)(c3ccccc3)c3ccccc32)cc1` (stereo not drawn) [Compound 17, 3,3-Diphenyl-1-indanyl α-(4-methyltoluate) ether] yielded an inhibition at 10 µM [1] of 76%, an inhibition at 10 µM [2] of 0% and a melting point of 50 to 52 °C.
With `O/N=C1\CC(c2ccc(Cl)cc2)(c2ccc(Cl)cc2)c2ccc(Cl)cc21` [Compound 11] the IC50 (SK-MEL-28) was 5.5 µM, the IC50 [1] was 3.4 µM and the inhibition at 10 µM [1] was 99%. The IC50 (3T3) was > 10 µM, the IC50 (SK-OV-3) was > 10 µM and the inhibition at 10 µM [2] was 50%. For the same molecule, the IC50 (A549) was 8.8 µM, the IC50 (L929) was 8.6 µM and the IC50 (ACHN) was > 10 µM. For the same molecule, the IC50 (HT29) was 6.8 µM, the IC50 (HCT-15) was 6.6 µM and the IC50 (HTB174) was 5.9 µM. For the same molecule, the IC50 (HUVEC) was 6.4 µM, the IC50 (DU-145) was > 10 µM and the IC50 (MDA-MB-231) was > 10 µM. For the same molecule, the IC50 (GM) was > 10 µM, the IC50 (HeLa) was 5.1 µM and the IC50 (MCF7) was 4.4 µM. It also gave an IC50 (HEPG2) of 5.8 µM, an IC50 (CaSki) of 7 µM and an IC50 (MMRU cells) of 6.2 µM. It also gave a melting point of 85 °C.
Molecule `COC(=O)C1C(=O)c2ccccc2C1(c1ccccc1)c1ccccc1` (stereo not drawn) [Compound 15, 3,3-Diphenylindanone-2-methyl acetate] has an IC50 [1] of 7.5 µM, an inhibition at 10 µM [1] of 80% and an IC50 [2] of 2.9 µM. For the same molecule, the inhibition at 10 µM [2] was 54.8% and the melting point was 140 to 142 °C.
